Molecular target: T1, AKT1 (Homo sapiens, UniProt P31749)
T1 construct: purchased Upstate 14-276
Experiment: HTS ATP-utilizing enzyme assay, off-chip mobility-shift (Caliper HTS 250)
Assay type: biochemical
Conditions: kinase named = inhibitory activity/selectivity; test compound 10 μM; active = greater than three-sigma from mean
In short: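 AKT1 activity was measured by off-chip mobility shift (Caliper HTS 250) as the ratio of peptide substrate to phosphorylated product. Test compound was at 10 μM, with 2.5 h incubation at 20–22° C. EDTA wells served as 100% control and DMSO wells as 0%. Hits were called at three-sigma limits.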

T1 sequence (P31749 whole entry): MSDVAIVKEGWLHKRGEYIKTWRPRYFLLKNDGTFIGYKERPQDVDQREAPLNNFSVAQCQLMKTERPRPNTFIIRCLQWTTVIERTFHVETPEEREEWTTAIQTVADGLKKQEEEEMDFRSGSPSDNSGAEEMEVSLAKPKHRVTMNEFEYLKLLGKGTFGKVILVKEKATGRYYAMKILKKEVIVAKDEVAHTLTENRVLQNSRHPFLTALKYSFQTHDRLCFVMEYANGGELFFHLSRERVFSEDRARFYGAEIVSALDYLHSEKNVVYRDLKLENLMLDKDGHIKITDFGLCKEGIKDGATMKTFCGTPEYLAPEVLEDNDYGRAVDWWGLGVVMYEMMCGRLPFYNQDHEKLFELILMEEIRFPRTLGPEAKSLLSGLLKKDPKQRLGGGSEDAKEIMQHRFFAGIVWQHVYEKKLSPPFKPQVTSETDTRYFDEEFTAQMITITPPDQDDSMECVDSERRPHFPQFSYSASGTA

**Q.** How did the Activity turn out when O=C(O)CNC(=O)c1ccc(-c2csc(N(CCCN3CCOCC3)C(=O)c3cccs3)n2)cc1 [2-(4-(2-(N-(3-morpholinopropyl)thiophene-2-carboxamido)thiazol-4-yl)benzamido)acetic acid] was run?
**A.** AKT1

**Q.** How did the Activity turn out when CCN(CC)CCCN(C(=O)c1cccs1)c1nc(-c2ccc(OC)c(OC)c2)cs1 [N-(3-(diethylamino)propyl)-N-(4-(3,4-dimethoxyphenyl)thiazol-2-yl)thiophene-2-carboxamide] was run?
**A.** AKT1

**Q.** With COc1ccc(-c2csc(N(CCCN3CCOCC3)C(=O)c3cccs3)n2)c(OC)n1 [N-(4-(2,6-dimethoxypyridin-3-yl)thiazol-2-yl)-N-(3-morpholinopropyl)thiophene-2-carboxamide] as the molecule, how does the Activity read?
**A.** AKT1

**Q.** With O=C(c1cccs1)N(CCCCCN1CCOCC1)c1nc(-c2cc3ccccc3o2)cs1 [N-(4-(benzofuran-2-yl)thiazol-2-yl)-N-(5-morpholinopentyl)thiophene-2-carboxamide] as the molecule, how does the Activity read?
**A.** AKT1

**Q.** With O=C1CN(C(=O)CCCN(C(=O)c2cccs2)c2nc(-c3cc4ccccc4o3)cs2)CCN1 [N-(4-(benzofuran-2-yl)thiazol-2-yl)-N-(4-oxo-4-(3-oxopiperazin-1-yl)butyl)thiophene-2-carboxamide] as the molecule, how does the Activity read?
**A.** AKT1

**Q.** With CN1CCN(CCCN(C(=O)c2ccco2)c2nc(-c3cc(-c4ccccc4)no3)cs2)CC1 [N-(3-(4-methylpiperazin-1-yl)propyl)-N-(4-(3-phenylisoxazol-5-yl)thiazol-2-yl)furan-2-carboxamide] as the molecule, how does the Activity read?
**A.** AKT1

**Q.** Which Activity does the source give for CN(C(=O)CCN(C(=O)c1cccs1)c1nc(-c2cc3ccccc3o2)cs1)c1ccncc1 [N-(4-(benzofuran-2-yl)thiazol-2-yl)-N-(3-(methyl(pyridin-4-yl)amino)-3-oxopropyl)thiophene-2-carboxamide] here?
**A.** AKT1

**Q.** How did the Activity turn out when O=C(O)COc1cccc(-c2csc(N(CCCN3CCOCC3)C(=O)c3cccs3)n2)c1 [2-(3-(2-(N-(3-morpholinopropyl)thiophene-2-carboxamido)thiazol-4-yl)phenoxy)acetic acid] was run?
**A.** AKT1

**Q.** Which Activity does the source give for O=C(CCN(C(=O)c1cccs1)c1nc(-c2cc3ccccc3o2)cs1)NCC1COCCO1 (stereo not drawn) [N-(3-((1,4-dioxan-2-yl)methylamino)-3-oxopropyl)-N-(4-(benzofuran-2-yl)thiazol-2-yl)thiophene-2-carboxamide] here?
**A.** AKT1

**Q.** CN(CCC#N)C(=O)CCN(C(=O)c1cccs1)c1nc(-c2cc3ccccc3o2)cs1 [N-(4-(benzofuran-2-yl)thiazol-2-yl)-N-(3-((2-cyanoethyl)(methyl)amino)-3-oxopropyl)thiophene-2-carboxamide] was tested. Which Activity did it give?
**A.** AKT1

**Q.** For O=C(c1cccs1)N(CCCN1CCOCC1)c1nc(-c2ccc(F)c(F)c2)cs1 [N-(4-(3,4-difluorophenyl)thiazol-2-yl)-N-(3-morpholinopropyl)thiophene-2-carboxamide], which Activity is on record?
**A.** AKT1

**Q.** With CS(=O)(=O)Nc1cccc(NC(=O)c2csc(N(CCCN3CCOCC3)C(=O)c3cccs3)n2)c1 [N-(3-(methylsulfonamido)phenyl)-2-(N-(3-morpholinopropyl)thiophene-2-carboxamido)thiazole-4-carboxamide] as the molecule, how does the Activity read?
**A.** AKT1

**Q.** For Cc1cc(-c2csc(N(CCCN3CCOCC3)C(=O)c3cccs3)n2)ccc1Cl [N-(4-(4-chloro-3-methylphenyl)thiazol-2-yl)-N-(3-morpholinopropyl)thiophene-2-carboxamide], which Activity is on record?
**A.** AKT1

**Q.** O=C(c1cccs1)N(CCCN1CCOCC1)c1nc(-c2ccc(Cl)c([N+](=O)[O-])c2)cs1 [N-(4-(4-chloro-3-nitrophenyl)thiazol-2-yl)-N-(3-morpholinopropyl)thiophene-2-carboxamide] was tested. Which Activity did it give?
**A.** AKT1

**Q.** With C[S+]([O-])CCNC(=O)CCCN(C(=O)c1cccs1)c1nc(-c2cc3ccccc3o2)cs1 (stereo not drawn) [N-(4-(benzofuran-2-yl)thiazol-2-yl)-N-(4-(2-(methylsulfinyl)ethylamino)-4-oxobutyl)thiophene-2-carboxamide] as the molecule, how does the Activity read?
**A.** AKT1

**Q.** How did the Activity turn out when N#Cc1ccc(-c2csc(N(CCCN3CCOCC3)C(=O)c3cccs3)n2)cc1 [N-(4-(4-cyanophenyl)thiazol-2-yl)-N-(3-morpholinopropyl)thiophene-2-carboxamide] was run?
**A.** AKT1

**Q.** How did the Activity turn out when COc1cccc(CNC(=O)c2csc(N(CCCN3CCOCC3)C(=O)c3cccs3)n2)c1 [N-(3-methoxybenzyl)-2-(N-(3-morpholinopropyl)thiophene-2-carboxamido)thiazole-4-carboxamide] was run?
**A.** AKT1

**Q.** With O=C(CN1CCOCC1)NCCCN(C(=O)c1cccs1)c1nc(-c2cc3ccccc3o2)cs1 [N-(4-(benzofuran-2-yl)thiazol-2-yl)-N-(3-(2-morpholinoacetamido)propyl)thiophene-2-carboxamide] as the molecule, how does the Activity read?
**A.** AKT1

**Q.** Which Activity does the source give for COc1ccccc1-c1csc(N(CCCN2CCOCC2)C(=O)c2cccs2)n1 [N-(4-(2-methoxyphenyl)thiazol-2-yl)-N-(3-morpholinopropyl)thiophene-2-carboxamide] here?
**A.** AKT1

**Q.** With O=C(c1cccs1)N(CCC(=O)N(CCCCO)C1CCCCC1)c1nc(-c2cc3ccccc3o2)cs1 [N-(4-(benzofuran-2-yl)thiazol-2-yl)-N-(3-(cyclohexyl(4-hydroxybutyl)amino)-3-oxopropyl)thiophene-2-carboxamide] as the molecule, how does the Activity read?
**A.** AKT1

**Q.** With COc1ccc(-c2csc(N(CCCN3CCCC3=O)C(=O)c3cccs3)n2)cc1OC [N-(4-(3,4-dimethoxyphenyl)thiazol-2-yl)-N-(3-(2-oxopyrrolidin-1-yl)propyl)thiophene-2-carboxamide] as the molecule, how does the Activity read?
**A.** AKT1

**Q.** For CC(C)(C)OC(=O)NC1CCN(C(=O)CCCN(C(=O)c2cccs2)c2nc(-c3cc4ccccc4o3)cs2)C1 (stereo not drawn) [tert-butyl 1-(4-(N-(4-(benzofuran-2-yl)thiazol-2-yl)thiophene-2-carboxamido)butanoyl)pyrrolidin-3-ylcarbamate], which Activity is on record?
**A.** AKT1

**Q.** Which Activity does the source give for O=C(O)C1CCCN(C(=O)CCN(C(=O)c2cccs2)c2nc(-c3cc4ccccc4o3)cs2)C1 (stereo not drawn) [1-(3-(N-(4-(benzofuran-2-yl)thiazol-2-yl)thiophene-2-carboxamido)propanoyl)piperidine-3-carboxylic acid] here?
**A.** AKT1

**Q.** With CCN(CC)C1CCN(CCCN(C(=O)c2cccs2)c2nc(-c3cc4ccccc4o3)cs2)CC1 [N-(4-(benzofuran-2-yl)thiazol-2-yl)-N-(3-(4-(diethylamino)piperidin-1-yl)propyl)thiophene-2-carboxamide] as the molecule, how does the Activity read?
**A.** AKT1

**Q.** How did the Activity turn out when O=C(c1cccs1)N(CCCN1CCOCC1)c1nc(-c2ccc(Cl)cc2Cl)cs1 [N-(4-(2,4-dichlorophenyl)thiazol-2-yl)-N-(3-morpholinopropyl)thiophene-2-carboxamide] was run?
**A.** AKT1

**Q.** For O=C(c1cccs1)N(CCCN1CCOCC1)c1nc(-c2ccccc2F)cs1 [N-(4-(2-fluorophenyl)thiazol-2-yl)-N-(3-morpholinopropyl)thiophene-2-carboxamide], which Activity is on record?
**A.** AKT1

**Q.** With O=C(c1cccs1)N(CCCN1CCOCC1)c1nc(-c2cccc(Br)c2)cs1 [N-(4-(3-bromophenyl)thiazol-2-yl)-N-(3-morpholinopropyl)thiophene-2-carboxamide] as the molecule, how does the Activity read?
**A.** AKT1

**Q.** How did the Activity turn out when O=C(c1cccs1)N(CCCCN1CCOCC1)c1nc(-c2cc(-c3ccccc3)no2)cs1 [N-(4-morpholinobutyl)-N-(4-(3-phenylisoxazol-5-yl)thiazol-2-yl)thiophene-2-carboxamide] was run?
**A.** AKT1

**Q.** With CN(CC(O)CO)C(=O)CCCN(C(=O)c1cccs1)c1nc(-c2cc3ccccc3o2)cs1 (stereo not drawn) [N-(4-(benzofuran-2-yl)thiazol-2-yl)-N-(4-((2,3-dihydroxypropyl)(methyl)amino)-4-oxobutyl)thiophene-2-carboxamide] as the molecule, how does the Activity read?
**A.** AKT1

**Q.** For COc1ccc(OC)c(-c2csc(N(CCCN3CCCC3)C(=O)c3ccco3)n2)c1 [N-(4-(2,5-dimethoxyphenyl)thiazol-2-yl)-N-(3-(pyrrolidin-1-yl)propyl)furan-2-carboxamide], which Activity is on record?
**A.** AKT1

**Q.** O=C(c1cccs1)N(CCCN1CCOCC1)c1nc(-c2ccc(F)cc2)cs1 [N-(4-(4-fluorophenyl)thiazol-2-yl)-N-(3-morpholinopropyl)thiophene-2-carboxamide] was tested. Which Activity did it give?
**A.** AKT1

**Q.** COc1ccc(-c2csc(N(CCCN3CCOCC3)C(=O)c3ccc(Cl)s3)n2)cc1 [5-chloro-N-(4-(4-methoxyphenyl)thiazol-2-yl)-N-(3-morpholinopropyl)thiophene-2-carboxamide] was tested. Which Activity did it give?
**A.** AKT1

**Q.** With COc1ccc(OC)c(-c2csc(N(CCCN3CCCCC3)C(=O)c3ccccc3)n2)c1 [N-(4-(2,5-dimethoxyphenyl)thiazol-2-yl)-N-(3-(piperidin-1-yl)propyl)benzamide] as the molecule, how does the Activity read?
**A.** AKT1

**Q.** Which Activity does the source give for O=C(NCCCN(C(=O)c1cccs1)c1nc(-c2cc3ccccc3o2)cs1)c1ccncc1 [N-(3-(N-(4-(benzofuran-2-yl)thiazol-2-yl)thiophene-2-carboxamido)propyl)isonicotinamide] here?
**A.** AKT1

**Q.** Which Activity does the source give for COc1ccc(-c2csc(N(CCCN3CCCCCC3)C(=O)c3ccco3)n2)cc1 [N-(3-(azepan-1-yl)propyl)-N-(4-(4-methoxyphenyl)thiazol-2-yl)furan-2-carboxamide] here?
**A.** AKT1

**Q.** With O=C(CCN(C(=O)c1cccs1)c1nc(-c2cc3ccccc3o2)cs1)NCc1ccoc1 [N-(4-(benzofuran-2-yl)thiazol-2-yl)-N-(3-(furan-3-ylmethylamino)-3-oxopropyl)thiophene-2-carboxamide] as the molecule, how does the Activity read?
**A.** AKT1

**Q.** For COc1cccc2cc(-c3csc(N(CCCN4CCOCC4)C(=O)c4cccs4)n3)oc12 [N-(4-(7-methoxybenzofuran-2-yl)thiazol-2-yl)-N-(3-morpholinopropyl)thiophene-2-carboxamide], which Activity is on record?
**A.** AKT1

**Q.** For COC(=O)C1CCN(C(=O)CCCN(C(=O)c2cccs2)c2nc(-c3cc4ccccc4o3)cs2)CC1 [methyl 1-(4-(N-(4-(benzofuran-2-yl)thiazol-2-yl)thiophene-2-carboxamido)butanoyl)piperidine-4-carboxylate], which Activity is on record?
**A.** AKT1

**Q.** O=C(c1ccco1)N(CCCN1CCOCC1)c1nc(-c2ccccc2)cs1 [N-(3-morpholinopropyl)-N-(4-phenylthiazol-2-yl)furan-2-carboxamide] was tested. Which Activity did it give?
**A.** AKT1
